Test results from ChEMBL document CHEMBL1201862, “PubChem BioAssay data set” (2004).
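The compound was tested at five concentrations on cells cultured in 96-well plates, with a 48-hour exposure period. GI50: concentration for 50% inhibition of growth.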 Calls of active or inactive are those of the source. No stated cut-off is given here; in the data, active = GI50 up to about 1.1 µM and inactive = higher.

Key:
Test in all cases: NCI-60 cell line screen, 48 h
HCT-15 = test system: HCT-15
HT-29 = test system: HT-29
HOP-92 = test system: HOP-92
A498 = test system: A498
EKVX = test system: EKVX
KM12 = test system: KM12
SK-MEL-2 = test system: SK-MEL-2
UO-31 = test system: UO-31
HCC 2998 = test system: HCC 2998
MOLT-4 = test system: MOLT-4
OVCAR-3 = test system: OVCAR-3
IGROV-1 = test system: IGROV-1
BT-549 = test system: BT-549
Malme-3M = test system: Malme-3M
SK-MEL-5 = test system: SK-MEL-5
ACHN = test system: ACHN
Hs-578T = test system: Hs-578T
OVCAR-4 = test system: OVCAR-4
NCI-H460 = test system: NCI-H460

Row | SMILES | GI50 (HCT-15) | GI50 (HT-29) | GI50 (HOP-92) | GI50 (A498) | GI50 (EKVX) | GI50 (KM12) | GI50 (SK-MEL-2) | GI50 (UO-31) | GI50 (HCC 2998) | GI50 (MOLT-4) | GI50 (OVCAR-3) | GI50 (IGROV-1) | GI50 (BT-549) | GI50 (Malme-3M) | GI50 (SK-MEL-5) | GI50 (ACHN) | GI50 (Hs-578T) | GI50 (OVCAR-4) | GI50 (NCI-H460)
1 | CC(C)Oc1ccc2c(c1)OCC1Cc3ccccc3OC21 (stereo not drawn) | 18.3 µM | 41.4 µM (inactive) | > 100 µM (inactive) | > 100 µM (inactive) | 75.9 µM (inactive) | > 100 µM (inactive) | > 100 µM (inactive) | > 100 µM (inactive) | 96.8 µM (inactive) | 36.2 µM (inactive) | > 100 µM (inactive) | > 100 µM (inactive) | 58.2 µM (inactive) | > 100 µM (inactive) | 23 µM (inactive) | – | – | – | –
2 | COC(=O)C1=C(OC)C(=P2(c3ccccc3)CC(c3ccccc3)=C2c2ccccc2)C(C(=O)OC)=C1C(=O)OC (stereo not drawn) | 11 µM | – | – | – | > 91.8 µM (inactive) | 27.5 µM (inactive) | 54.5 µM (inactive) | 14.9 µM (inactive) | > 100 µM (inactive) | 3.17 µM (inactive) | 35 µM (inactive) | 22.2 µM (inactive) | > 76.6 µM (inactive) | 29.9 µM (inactive) | 15.7 µM (inactive) | 49.8 µM (inactive) | > 100 µM (inactive) | 19.5 µM (inactive) | 15 µM (inactive)
3 | CNC(=O)OCc1c(COC(=O)NC)c(C)n(-c2ccc(Br)cc2)c1C | 14 µM | 5.57 µM (inactive) | 7.76 µM (inactive) | 1.36 µM (inactive) | 27.3 µM (inactive) | 14.4 µM (inactive) | 15.5 µM (inactive) | 5.57 µM (inactive) | 15.2 µM (inactive) | 6.79 µM (inactive) | 14.6 µM (inactive) | 3.98 µM (inactive) | – | 17.6 µM (inactive) | 13.6 µM (inactive) | 3.26 µM (inactive) | 16.2 µM (inactive) | – | 8.2 µM (inactive)
4 | Cc1cc(OC(=O)Nc2cccc3ccccc23)c(C(C)C)cc1C(=S)Nc1ccccc1 | 10.9 µM | 18.7 µM (inactive) | – | – | 23.7 µM (inactive) | 16.3 µM (inactive) | 13.7 µM (inactive) | 17.6 µM (inactive) | 20.6 µM (inactive) | 11.4 µM (inactive) | 16.1 µM (inactive) | 13.6 µM (inactive) | 12.1 µM (inactive) | 17.3 µM (inactive) | 14.4 µM (inactive) | 24.2 µM (inactive) | 12.3 µM (inactive) | 11 µM (inactive) | 16.9 µM (inactive)
5 | NC1CCCCC1.O=C(O)C(CP(=O)(O)O)=C(Cl)Cl | > 100 µM | > 100 µM (inactive) | > 100 µM (inactive) | – | > 100 µM (inactive) | – | > 100 µM (inactive) | > 100 µM (inactive) | > 100 µM (inactive) | > 100 µM (inactive) | > 100 µM (inactive) | > 100 µM (inactive) | – | > 100 µM (inactive) | – | > 100 µM (inactive) | – | – | > 100 µM (inactive)
6 | CC(C)(C)C1CCC2c3c([nH]c4ccccc34)C3C(=O)N(c4ccc5c(c4)C(=O)c4ccccc4C5=O)C(=O)C3C2C1 (stereo not drawn) | > 100 µM | > 100 µM (inactive) | – | > 100 µM (inactive) | > 100 µM (inactive) | > 100 µM (inactive) | > 100 µM (inactive) | – | > 100 µM (inactive) | > 100 µM (inactive) | > 100 µM (inactive) | > 100 µM (inactive) | > 100 µM (inactive) | > 100 µM (inactive) | > 100 µM (inactive) | > 100 µM (inactive) | > 100 µM (inactive) | > 100 µM (inactive) | > 100 µM (inactive)
7 | Cc1cn([C@H]2C[C@H](O)[C@@H](CO)O2)c(=O)nc1N | > 100 µM | > 100 µM (inactive) | – | > 100 µM (inactive) | – | > 100 µM (inactive) | > 100 µM (inactive) | > 100 µM (inactive) | – | > 100 µM (inactive) | > 100 µM (inactive) | > 100 µM (inactive) | > 100 µM (inactive) | > 100 µM (inactive) | > 100 µM (inactive) | > 100 µM (inactive) | > 100 µM (inactive) | > 100 µM (inactive) | > 100 µM (inactive)
8 | CCC(C)N1CN(c2ccccc2)C2(CCN(CCCC(=O)c3ccc(F)cc3)CC2)C1=O (stereo not drawn) | 5.33 µM | 0.429 µM (active) | – | 2.82 µM (inactive) | 10.8 µM (inactive) | – | 14.9 µM (inactive) | 4.17 µM (inactive) | – | 3.92 µM (inactive) | 11.9 µM (inactive) | 3.02 µM (inactive) | 13.1 µM (inactive) | 14.7 µM (inactive) | 1.19 µM (inactive) | 1.68 µM (inactive) | 13.7 µM (inactive) | 3.03 µM (inactive) | –
9 | O=C1CC2CC(CC3(CO3)C2)C1F (stereo not drawn) | > 100 µM | > 100 µM (inactive) | 23 µM (inactive) | > 100 µM (inactive) | > 100 µM (inactive) | > 100 µM (inactive) | > 100 µM (inactive) | > 100 µM (inactive) | > 100 µM (inactive) | > 100 µM (inactive) | – | > 100 µM (inactive) | – | > 100 µM (inactive) | > 100 µM (inactive) | > 100 µM (inactive) | > 100 µM (inactive) | > 100 µM (inactive) | > 100 µM (inactive)
